# Assay results as given in patent US8889378B2, “Cytochrome C synthesis inhibitors” (priority 2006, dated 2014).
# How the values were obtained:
# [1] = test system: E. coli ΔccmΔhemA; test: Growth of E. coli ΔccmΔhemA on exogenous heme, without or with the heme porin ChuA (pHPEX2); format: cell-based
# Procedure: FIG. 13. Growth of E. coli DccmDhemA with exogenous heme. Overnight cultures of E. coli DccmDhemA or containing pHPEX2 and (A) pRGK333 or (B) pRGK334 were diluted into LB broth without ALA or heme. The cultures were incubated aerobically at 37° C. for two and one-half hours to exhaust the cultures for ALA. Heme was added at the indicated concentrations when noted and growth (A600) was measured. For reference, the growth of E. coli Dccm (wild-type) containing either pRGK333 or pRGK334 is shown (t).
# To determine if exogenous heme rather than ALA could support growth, an overnight culture of E. coli ΔccmΔhemA, supplemented with 300 μM ALA, was used to inoculate [1% (v/v)] fresh LB medium containing different concentrations of heme (0 μM to 100 μM).
# Since the outer membranes of some strains of E. coli are poorly permeable to heme, the heme porin from pHPEX2 (Varnado and Goodwin, 2004) was expressed. The tetracycline-resistant pHPEX2 expresses the gene for the heme receptor (chuA) from E. coli O157:H7 using the IPTG-inducible lacUV5 promoter. ChuA is a member of a class of relatively nonspecific enterobacterial heme receptors that are TonB-dependent and facilitate heme acquisition from the environment and recognize free heme and heme bound to a variety of proteins (see FIG. 11). Growth of E. coli ΔccmΔhemA containing either pRGK333 or pRGK334 and pHPEX2 was dependant on exogenous heme (see FIG. 13). […] The pHPEX2 also facilitates the heme-dependent production of the B. pertussis c4:6×His when the plasmids with system I or system II are present (see below).
# [2] = test system: system I cytochrome c biogenesis (heme acquisition); test: Exogenous heme addition, E. coli ΔccmΔhemA (RK105) with system I, pRGK332 and pHPEX2; format: cell-based
# Procedure: (§1) Cultures of RK105 (E. coli ΔccmΔhemA) harboring pRGK333 (system I), pRGK332 (cytochrome c4:6×His), and pHPEX2 (Varnado and Goodwin, 2004) or pRGK348 (system II) and pRGK332 were grown in LB overnight in the presence of 300 μM aminolevulinic acid (ALA). 100 mL cultures were started from the overnight culture with a 1% inoculum in LB devoid of ALA for two and one-half hours. After two and one-half hours, the 100 mL cultures had exhausted their cellular supply of ALA and required exogenous heme (or ALA) for further growth. The ALA exhausted cultures were divided into 5 mL aliquots to which IPTG (1 mM, to induce the synthesis of the system I proteins) and heme (0 μM to 100 μM) (Sigma) were added. It was discovered that heme at greater than 60 μM would precipitate over time with no IPTG (1 mM) present and at greater than 100 μM in the presence of IPTG. After one hour, arabinose (0.2% to induce the synthesis of cytochrome c4:6×His) was added and cultures were grown for an additional three hours. Cells were harvested and protein was extracted using B-PER as previously described (Feissner et al., 2006). […]
# Heme stains were performed as described (Feissner et al., 2003) using SuperSignal Femto chemiluminescent substrate (Pierce). Heme stain quantitation used LOLITA II (Low Light Test Array; raytestUSA; Wilmington, N.C.) for standardization of light intensity detection on an LAS1000plus Luminescent Image Analyzer CCD camera system. […] Chemiluminescence from heme stains and Western blots were detected using an LAS-1000plus Luminescent Image Analyzer CCD camera system (Fujifilm). Protein concentrations were determined using the BCA assay (Pierce) using BSA as a standard. […] Protein concentrations were determined with the BCA assay kit (Pierce) using BSA as a standard.
# To directly examine the difference in heme acquisition between systems I and II, varying concentrations of exogenous heme were supplied to E. coli ΔccmΔhemA, expressing ChuA with pRGK332 and either system plasmid. […] The cytochrome c4 acts as a trap, allowing quantitation of the levels of heme that have fluxed through each system. […]
# [3] = Heme precipitation in culture medium; format: physicochemical
# Procedure: as §1, with “2006). Cytochrome c4:6×His was purified from 200 μg of total protein over nickel affinity resin to eliminate free heme. 20 μL of each sample were subjected to SDS-PAGE, transferred to nitrocellulose, and heme stained as described above.” for “2006).”
# [4] = test system: system II (CcsBA) cytochrome c biogenesis (heme acquisition); test: Exogenous heme addition, E. coli ΔccmΔhemA (RK105) with system II (CcsBA), chuA and pRGK332; format: cell-based; conditions: averaged over 3 trials, Hill curve fit, read-out: heme concentration at which holocytochrome c4:6×His levels reached 50% of maximum synthesis
# Procedure: Cultures of RK105 (E. coli ΔccmΔhemA) harboring pRGK333 (system I), pRGK332 (cytochrome c4:6×His), and pHPEX2 (Varnado and Goodwin, 2004) or pRGK348 (system II) and pRGK332 were grown in LB overnight in the presence of 300 μM aminolevulinic acid (ALA). 100 mL cultures were started from the overnight culture with a 1% inoculum in LB devoid of ALA for two and one-half hours. After two and one-half hours, the 100 mL cultures had exhausted their cellular supply of ALA and required exogenous heme (or ALA) for further growth. The ALA exhausted cultures were divided into 5 mL aliquots to which IPTG (1 mM, to induce the synthesis of the system I proteins) and heme (0 μM to 100 μM) (Sigma) were added. […]
# Heme stains were performed as described (Feissner et al., 2003) using SuperSignal Femto chemiluminescent substrate (Pierce). Heme stain quantitation used LOLITA II (Low Light Test Array; raytestUSA; Wilmington, N.C.) for standardization of light intensity detection on an LAS1000plus Luminescent Image Analyzer CCD camera system. […] Chemiluminescence from heme stains and Western blots were detected using an LAS-1000plus Luminescent Image Analyzer CCD camera system (Fujifilm). Protein concentrations were determined using the BCA assay (Pierce) using BSA as a standard. […] Protein concentrations were determined with the BCA assay kit (Pierce) using BSA as a standard. […]
# [5] = test system: system I cytochrome c biogenesis; test: Heme competition with ZnPPIX inhibition, E. coli Δccm with system I, ChuA and cytochrome c4:Pho; format: cell-based; conditions: grown with 12.5 μM ZnPPIX
# Procedure: FIG. 22. Western blot (A: lanes 1-7) and heme stain (B: lanes 1-5) indicating ZnPPIX competes with heme. Overnight cultures of E. coli Dccm containing pRGK333, pRGK331, and pHPEX2 were diluted into fresh LB broth containing […] ZnPPIX and grown to mid-log phase. IPTG (1 mM) was added and incubation continued for 30 minutes. Heme was added and incubation continued for 30 minutes. Arabinose (0.2%) was added for three hours to induce synthesis of cytochrome c4:PhoA and soluble B-PER protein extracts were prepared. The concentrations ([…]) of ZnPPIX and heme are given above each lane. Above the panel pSysI is pRGK333, pc4:PhoA is cytochrome c4:PhoA, and Dccm is E. coli Dcam.
# ZnPPIX is inhibiting downstream of holoCcmE since this “heme reservoir” is no longer available for cytochrome c4 biogenesis. The WWD containing protein CcmF may the target for ZnPPIX (see FIG. 11). If the target for ZnPPIX is a heme binding protein (site), then exogenous heme should compete with this inhibition (i.e. ZnPPIX binding). […] The same heme stained polypeptides were confirmed to be full length cytochrome c4:Pho fusion proteins by Western blot (FIG. 22A, lane 1-5). ZnPPIX is a specific inhibitor of c-type cytochrome biogenesis by either system I or system II, but heme is able to compete with ZnPPIX inhibition.
substance,measurement,setting,value
iron protoporphyrin IX [heme],growth on exogenous heme,"[1]; chuA (pHPEX2) expressed, pRGK333 or pRGK334",growth to near wild-type levels
same,growth on exogenous heme,"[1]; heme 0 μM to 100 μM, no heme porin",not detected until four to five days
same,holocytochrome c4:6×His production on exogenous heme,"[1]; no heme porin, system I or system II plasmid and c4:6×His reporter",no holocytochrome c4:6×His production was detected
same,heme concentration at which maximum synthesis of holocytochrome c4:6×His occurs,[2]; system I,less than 10 μM
same,"apparent affinity for heme, system I versus system II",[2]; system I compared with system II,at least twenty fold higher
same,EC50,"[2]; system I, averaged over 4 trials, Hill curve fit, read-out: heme concentration restoring holocytochrome c4:6×His levels to 50% of maximum",1.9 µM
same,heme concentration above which heme would precipitate over time,[3]; in the presence of IPTG,greater than 100 μM
same,heme concentration above which heme would precipitate over time,[3]; no IPTG (1 mM) present,greater than 60 μM
same,EC50,[4],54.4 µM
same,holocytochrome c4:Pho with increasing concentrations of additional heme,[5],corresponding increase in holocytochrome c4:Pho
